{"source": "patent US20110092540A1", "about": "“SUBSTITUTED N-PHENYL-2,3-DIHYDROIMIDAZO[2,1-B]THIAZOLE-5-SULFONAMIDE DERIVATIVES AS 5-HT6 LIGANDS” (priority 2008, published 2011)", "key": {"[1]": {"biological_target": "T1, 5HT6-human recombinant receptor (Homo sapiens, UniProt P50406)", "T1 sequence (P50406 whole entry)": "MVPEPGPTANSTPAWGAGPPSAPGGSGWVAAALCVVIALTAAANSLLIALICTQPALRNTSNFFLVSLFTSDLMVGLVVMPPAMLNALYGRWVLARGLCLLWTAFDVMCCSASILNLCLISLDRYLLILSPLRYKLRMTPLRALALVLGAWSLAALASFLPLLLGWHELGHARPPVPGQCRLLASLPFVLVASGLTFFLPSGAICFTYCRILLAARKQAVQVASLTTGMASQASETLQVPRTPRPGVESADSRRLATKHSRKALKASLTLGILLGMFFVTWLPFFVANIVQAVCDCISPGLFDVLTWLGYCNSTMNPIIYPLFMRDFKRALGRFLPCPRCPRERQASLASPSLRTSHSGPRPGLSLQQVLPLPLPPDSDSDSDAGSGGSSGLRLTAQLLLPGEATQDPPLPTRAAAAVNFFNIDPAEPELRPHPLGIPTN", "conditions": "in words; Fisas, A. et al., Brit. J. Pharm. 2006; cited from earlier work"}, "[2]": {"conditions": "in words; Fisas, A. et al., Brit. J. Pharm. 2006; cited from earlier work"}, "[3]": {"biological_target": "T1, 5HT6-human recombinant receptor", "experiment": "Binding to serotonin receptor 5HT6 ([3H]-LSD radioligand displacement)", "design": "purchased Receptor Biology; host or cells: HEK-293 cells (membranes)", "conditions": "membranes of HEK-293 cells expressing 5HT6-human recombinant receptor; [3H]-LSD 2.7 nM; 60 min, 37° C.", "method": "Binding to Serotonin Receptor 5HT6\nCell membranes of HEK-293 cells expressing the 5HT6-human recombinant receptor were supplied by Receptor Biology. In said membranes the receptor concentration is 2.18 pmol/mg protein and the protein concentration is 9.17 mg/ml. The experimental protocol follows the method of B. L. Roth et al. [B. L. Roth et al., The Journal of Pharmacology and Experimental Therapeutics, 1994, 268. 1403] with the following slight changes. The respective part of the literature description is hereby incorporated by reference and forms part of the disclosure.\nThe commercial membrane is diluted (1:40 dilution) with the binding buffer: 50 mM Tris-HCl, 10 mM MgCl2, 0.5 mM EDTA (pH 7.4). The radioligand used is [^3H]-LSD at a concentration of 2.7 nM with a final volume of 200 μl. incubation is initiated by adding 100 μl of membrane suspension, (≈22.9 μg membrane protein), and is prolonged for 60 minutes at a temperature of 37° C. The incubation is ended by fast filtration in a Brandel Cell Harvester through fiber glass filters made by Schleicher & Schuell GF 3362 pretreated with a solution of polyethylenimine at 0.5%. The filters are washed three times with three milliliters of buffer Tris-HCl 50 mM pH 7.4. The filters are transferred to flasks and 5 ml of Ecoscint H liquid scintillation cocktail are added to each flask. The flasks are allowed to reach equilibrium for several hours before counting with a Wallac Winspectral 1414 scintillation counter. Non-specific binding is determined in the presence of 100 μM of serotonin. Tests were made in triplicate. The inhibition constants (Ki, nM) were calculated by non-linear regression analysis using the program EBDA/LIGAND described in Munson and Rodbard, Analytical Biochemistry, 1980, 107, 220, which is hereby incorporated by reference and forms part of the disclosure."}}, "note": "Where a name gives a salt, the structure may show the parent alone.", "data": [{"smiles": "CN(C)CCc1c[nH]c2ccc(NS(=O)(=O)c3ccc4c(Cl)cccc4c3)cc12", "note": "[Compound E-6837, 5-chloro-N[3-(2-(dimethylamino)ethyl)-1H-indol-5-yl] naphthalene-2-sulphonamide]", "values": [{"measurement": "binding for the recombinant human 5-HT6 receptor", "setting": "[1]", "result": "selective and high affinity binding"}, {"measurement": "body weight", "setting": "[2]", "result": "significant body weight loss"}, {"measurement": "food intake", "setting": "[2]", "result": "reduction in the food intake"}]}, {"smiles": "CN(C)CCc1c[nH]c2ccc(NS(=O)(=O)c3c(Cl)nc4n3CCS4)cc12", "note": "[Compound 3, 6-Chloro-2,3-dihydro-imidazo[2,1-b] thiazole-5-sulfonic acid [3-(2-dimethylamino-ethyl)-1H-indol-5-yl]-amide hydrochloride]", "values": [{"measurement": "Ki", "setting": "[3]", "result": 16.9, "unit": "nM"}]}, {"smiles": "O=S(=O)(Nc1ccc2c(c1)CCNC2)c1c(Cl)nc2n1CCS2", "note": "[Compound 1, 6-Chloro-2,3-dihydro-imidazo[2,1-b] thiazole-5-sulfonic acid (1,2,3,4-tetrahydro-isoquinolin-6-yl)-amide hydrochloride]", "values": [{"measurement": "Ki", "setting": "[3]", "result": 8.4, "unit": "nM"}]}, {"smiles": "O=C1CCc2ccc(NS(=O)(=O)c3c(Cl)nc4n3CCS4)cc21", "note": "[Compound 10, 6-Chloro-2,3-dihydro-imidazo[2,1-b] thiazole-5-sulfonic acid (3-oxo-indan-5-yl)-amide]", "values": [{"measurement": "Ki", "setting": "[3]", "result": 46, "unit": "nM"}]}, {"smiles": "CC(=O)N1CCc2cc(NS(=O)(=O)c3c(Cl)nc4n3CCS4)ccc21", "note": "[Compound 4, 6-Chloro-2,3-dihydro-imidazo[2,1-b] thiazole-5-sulfonic acid (1-acetyl-2,3-dihydro-1H-indol-5-yl)-amide]", "values": [{"measurement": "Ki", "setting": "[3]", "result": 5.4, "unit": "nM"}]}]}
